# Measurements published in PMC10657444, “Design and evaluation of tadpole-like conformational antimicrobial peptides” (Communications Biology, 2023).
# Values joined by “and” are separate entries in the source; they are usually repeats but may differ in a detail not shown here. Equal entries are not always repeated. Non-standard residues stand in square brackets, D forms with d. Residues, ends and D or L forms follow the SMILES beside them.
# What was measured:
# MRSA USA 300 [1] = experiment: microbe, parasite or virus in culture; assay type: cell-based, Staphylococcus aureus
# Method: MRSA USA 300 and K. pneumoniae ATCC 700603 were employed to assess the development of resistance. From inoculated microtiter panels, an aliquot of the well with the highest concentration permitting growth was taken and back diluted in fresh media to a turbidity of a 0.5 McFarland standard. This suspension was then further diluted and used to inoculate a fresh MIC panel resulting in a final concentration of 5 × 10^6 CFU/mL. Panels were incubated according to CLSI guidelines (M07, 11th edition, 2018), MICs were recorded and the next inoculum was prepared from the well containing the highest concentration of drug that allowed growth in identical fashion as described above.
# MRSA USA 300 [2] = experiment: Time-kill assay; assay type: cell-based, Staphylococcus aureus
# Method: Time-kill assays were done in tubes (in 1.5 mL of LB) and antibiotics at the 1 ×, 2 ×, 4 × and 8 × MIC. Tubes were inoculated (5 × 10^6 CFU/mL) with MRSA USA 300 and K. pneumoniae ATCC 700603 and incubated at 37 °C under shaking. Serial dilutions of the cultures were plated at each desired time point (0, 1, 3, 6, and 24 h), using a multichannel pipette as follows: in line 1 of a 96-well plate, 100 µL of bacterial suspension was added, while 90 µL of 0.9% sterile saline per well was added to the other lines. At selected time points, 100 µL of bacterial suspension was transferred from the time-kill assay plate to the first line. The wells were further diluted 1 in 10 (0.9% saline) for the appropriate number of dilutions and 10 μL of each dilution was spotted in duplicate onto MH agar plates, then incubated overnight at 37°C. The colonies in each spot were counted and used to calculate the number of viable CFU/mL remaining in the original culture by considering the dilution factors.
structure (smiles),measurement,setting,value
CC[C@@H](C)[C@@H](NC(=O)[C@@H](Cc1ccccc1)NC(=O)[C@@H](Cc1ccccc1)NC(=O)[C@@H](Cc1ccccc1)NC(=O)[C@H](N)Cc1ccccc1)C(=O)N[C@H](CCCNC(=N)N)C(=O)N[C@H](CCCNC(=N)N)C(=O)N[C@H](CC(C)C)C(=O)N[C@H](Cc1ccccc1)C(=O)N[C@H](CCCNC(=N)N)C(N)=O [RI-HT2] (H-[dF][dF][dF][dF][dI][dR][dR][dL][dF][dR]-NH2; N-terminus assumed),Concentration (MIC in drug resistance assay),"MRSA USA 300 [1]; MRSA USA 300, day 0",2 µg/mL
same,Concentration (MIC in drug resistance assay),"MRSA USA 300 [1]; MRSA USA 300, day 1",2 µg/mL
same,Concentration (MIC in drug resistance assay),"MRSA USA 300 [1]; MRSA USA 300, day 2",2 µg/mL
same,Concentration (MIC in drug resistance assay),"MRSA USA 300 [1]; MRSA USA 300, day 3",2 µg/mL
same,Concentration (MIC in drug resistance assay),"MRSA USA 300 [1]; MRSA USA 300, day 4",4 µg/mL
same,Concentration (MIC in drug resistance assay),"MRSA USA 300 [1]; MRSA USA 300, day 5",2 µg/mL
same,Concentration (MIC in drug resistance assay),"MRSA USA 300 [1]; MRSA USA 300, day 6",2 µg/mL
same,Concentration (MIC in drug resistance assay),"MRSA USA 300 [1]; MRSA USA 300, day 7",4 µg/mL
same,Concentration (MIC in drug resistance assay),"MRSA USA 300 [1]; MRSA USA 300, day 8",4 µg/mL
same,Concentration (MIC in drug resistance assay),"MRSA USA 300 [1]; MRSA USA 300, day 9",8 µg/mL
same,Concentration (MIC in drug resistance assay),"MRSA USA 300 [1]; MRSA USA 300, day 10",4 µg/mL
same,Concentration (MIC in drug resistance assay),"MRSA USA 300 [1]; MRSA USA 300, day 11",4 µg/mL
same,Concentration (MIC in drug resistance assay),"MRSA USA 300 [1]; MRSA USA 300, day 12",4 µg/mL
same,Concentration (MIC in drug resistance assay),"MRSA USA 300 [1]; MRSA USA 300, day 13",4 µg/mL
same,Concentration (MIC in drug resistance assay),"MRSA USA 300 [1]; MRSA USA 300, day 14",4 µg/mL
same,Concentration (MIC in drug resistance assay),"MRSA USA 300 [1]; MRSA USA 300, day 15",8 µg/mL
same,Concentration (MIC in drug resistance assay),"MRSA USA 300 [1]; MRSA USA 300, day 16",4 µg/mL
same,Concentration (MIC in drug resistance assay),"MRSA USA 300 [1]; MRSA USA 300, day 17",4 µg/mL
same,Concentration (MIC in drug resistance assay),"MRSA USA 300 [1]; MRSA USA 300, day 18",8 µg/mL
same,Concentration (MIC in drug resistance assay),"MRSA USA 300 [1]; MRSA USA 300, day 19",8 µg/mL
same,Concentration (MIC in drug resistance assay),"MRSA USA 300 [1]; MRSA USA 300, day 20",8 µg/mL
same,Concentration (MIC in drug resistance assay),"MRSA USA 300 [1]; MRSA USA 300, day 21",4 µg/mL
same,Concentration (MIC in drug resistance assay),"MRSA USA 300 [1]; MRSA USA 300, day 22",8 µg/mL
same,Concentration (MIC in drug resistance assay),"MRSA USA 300 [1]; MRSA USA 300, day 23",8 µg/mL
same,Concentration (MIC in drug resistance assay),"MRSA USA 300 [1]; MRSA USA 300, day 24",4 µg/mL
same,Concentration (MIC in drug resistance assay),"MRSA USA 300 [1]; MRSA USA 300, day 25",8 µg/mL
same,Concentration (MIC in drug resistance assay),"MRSA USA 300 [1]; MRSA USA 300, day 26",4 µg/mL
same,Concentration (MIC in drug resistance assay),"MRSA USA 300 [1]; MRSA USA 300, day 27",8 µg/mL
same,Concentration (MIC in drug resistance assay),"MRSA USA 300 [1]; MRSA USA 300, day 28",8 µg/mL
same,Concentration (MIC in drug resistance assay),"MRSA USA 300 [1]; MRSA USA 300, day 29",8 µg/mL
same,Concentration (MIC in drug resistance assay),"MRSA USA 300 [1]; MRSA USA 300, day 30",8 µg/mL
same,Concentration (MIC in drug resistance assay),"MRSA USA 300 [1]; MRSA USA 300, day 31",8 µg/mL
same,Concentration (MIC in drug resistance assay),"MRSA USA 300 [1]; MRSA USA 300, day 32",4 µg/mL
same,Concentration (MIC in drug resistance assay),"MRSA USA 300 [1]; MRSA USA 300, day 33",8 µg/mL
same,Concentration (MIC in drug resistance assay),"MRSA USA 300 [1]; MRSA USA 300, day 34",8 µg/mL
same,Concentration (MIC in drug resistance assay),"MRSA USA 300 [1]; MRSA USA 300, day 35",8 µg/mL
same,Concentration (MIC in drug resistance assay),"MRSA USA 300 [1]; MRSA USA 300, day 36",8 µg/mL
same,Concentration (MIC in drug resistance assay),"MRSA USA 300 [1]; MRSA USA 300, day 37",8 µg/mL
same,Concentration (MIC in drug resistance assay),"MRSA USA 300 [1]; MRSA USA 300, day 38",8 µg/mL
same,Concentration (MIC in drug resistance assay),"MRSA USA 300 [1]; MRSA USA 300, day 39",8 µg/mL
same,Concentration (MIC in drug resistance assay),"MRSA USA 300 [1]; MRSA USA 300, day 40",4 µg/mL
same,increase in MIC after 40 passages,MRSA USA 300 [1]; serial passage at sub-MIC,four-fold
same,"viable count, time-kill","MRSA USA 300 [2]; 2 × MIC, 0 h",17000000 CFU/mL and 16000000 CFU/mL
same,"viable count, time-kill","MRSA USA 300 [2]; 2 × MIC, 1 h",18000 CFU/mL and 21000 CFU/mL and 20000 CFU/mL
same,"viable count, time-kill","MRSA USA 300 [2]; 2 × MIC, 6 h",15000 CFU/mL and 12000 CFU/mL and 14000 CFU/mL
same,time to complete killing,MRSA USA 300 [2]; 4 × MIC,3 h
same,"viable count, time-kill","MRSA USA 300 [2]; 4 × MIC, 0 h",17000000 CFU/mL and 16000000 CFU/mL
same,"viable count, time-kill","MRSA USA 300 [2]; 4 × MIC, 1 h",1300 CFU/mL and 1200 CFU/mL
same,"viable count, time-kill","MRSA USA 300 [2]; 4 × MIC, 3 h",0 CFU/mL
same,"viable count, time-kill","MRSA USA 300 [2]; 4 × MIC, 6 h",0 CFU/mL
same,"viable count, time-kill","MRSA USA 300 [2]; 4 × MIC, 24 h",0 CFU/mL
